Experimental data from publication PMC9506414, “Novel 2,6,9-Trisubstituted Purines as Potent CDK Inhibitors Alleviating Trastuzumab-Resistance of HER2-Positive Breast Cancers” (Pharmaceuticals, 2022).

Experiments:
[1] = system: SK-Br3 cells; assay: Combination with trastuzumab, growth inhibition; assay type: cell-based, human; details: 40 nM 30d with multiple doses of trastuzumab, 72 h
Description: (§1) Additionally, we examined a combination effect in both SK-Br3 and HCC1954 cells.
(§2) Breast-cancer cells in culture media (100 μL volume/well, 5000 SK-Br3 cells/well, 1000 HCC-1954 cells/well) were seeded in tissue culture-treated 96-well plates, and incubated at a cell incubator for 24 h. Serially diluted compounds (3-fold, 10 point from 10 mM, duplicated) were pre-plated and 500 nL of compound solutions were pin-transferred to the cells in the assay plates using pintool system (JANUS liquid handler, PerkinElmer, Waltham, MA, USA) and incubated at a cell incubator for 72 h. Cell-titer Glo^TM reagent (50 μL, Promega Corp., Madison, WI, USA) was added to each well, and the luminescence signal was read using an Envision^TM plate reader (PerkinElmer, Waltham, MA, USA). The titration curve fitting and IC50 values were generated using Prism 7.0 s/w (GraphPad, San Diego, CA, USA).

[2] = system: HCC1954 cells; assay: Combination with trastuzumab, growth inhibition; assay type: cell-based, human; details: 40 nM 30d with multiple doses of trastuzumab, 72 h
Description: as §1, §2

[3] = system: IRS1; assay: Western blot of IRS1 in HCC1954 cells; assay type: cell-based, human; details: 40 and 200 nM, 24 h
Text: For Western blot analysis, the following antibodies were used: anti-Pol II CTD (2629S, Cell Signaling Technology, Danvers, MA, USA), anti-Pol II p-CTD (Ser2) (13499S, Cell Signaling Technology), anti-cyclinK (A301-939A-M, Bethyl Laboratories), anti-IRS1 (3407S, Cell Signaling Technology), anti-WNT1 (SC-514531, Santa Cruz Biotechnology, Dallas, TX, USA), anti-β-actin (MAB1501R, Millipore, Burlington, MA, USA), and horseradish peroxidase (HRP)-conjugated secondary antibodies (anti-mouse GTX213112-01; anti-rabbit GTX213110-01) (Genetex, Irvine, CA, USA).
Cells were lysed with lysis buffer containing 50 mM Tris pH 7.4, 150 mM NaCl, 1 mM EDTA, 1% NP-40, and 0.25% sodium deoxycholate supplemented with protease-inhibitor and phosphatase-inhibitor cocktails. The lysate samples (25 μg/lane) were loaded onto 6–12% sodium dodecyl sulfate polyacrylamide gel and separated by electrophoresis (SDS-PAGE). The proteins were transferred to nitrocellulose membrane (Gelman Sciences, Ann Arbor, MI, USA) by electroblotting. The membranes were blocked with 5% non-fat dry milk (MB Cell, Seoul, Korea), incubated with primary antibodies for overnight at 4 °C. After the washing steps were performed with TBST solution, the membranes were incubated with HRP-conjugated secondary antibodies for 1 h at rt. […]

[4] = molecular target: T1, CYP1A2 (Homo sapiens, UniProt P05177); assay: CYP inhibition; assay type: in vitro ADME
T1 sequence (P05177 1-516): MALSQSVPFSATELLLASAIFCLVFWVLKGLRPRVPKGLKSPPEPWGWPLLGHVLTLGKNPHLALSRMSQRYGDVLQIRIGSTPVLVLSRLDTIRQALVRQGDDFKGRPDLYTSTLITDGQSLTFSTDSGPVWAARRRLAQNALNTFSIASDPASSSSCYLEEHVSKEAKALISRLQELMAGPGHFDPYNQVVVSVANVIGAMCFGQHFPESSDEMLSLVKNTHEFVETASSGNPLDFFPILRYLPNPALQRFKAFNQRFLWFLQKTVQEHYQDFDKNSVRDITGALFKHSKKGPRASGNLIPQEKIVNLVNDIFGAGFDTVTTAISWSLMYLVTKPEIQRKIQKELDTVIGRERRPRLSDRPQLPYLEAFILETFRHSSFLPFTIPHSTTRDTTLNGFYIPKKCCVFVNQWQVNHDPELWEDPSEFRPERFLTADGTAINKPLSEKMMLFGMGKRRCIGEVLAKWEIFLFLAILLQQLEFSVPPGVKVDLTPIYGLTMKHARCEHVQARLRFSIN
Description: Table 6 In vitro liver metabolic stability and activity against CYPs of potent analogues. | column: CYP % Activity at 10 μM / 1A2

[5] = molecular target: CYP3A4 (Homo sapiens, UniProt P08684); assay: CYP inhibition; assay type: in vitro ADME
Description: Table 6 In vitro liver metabolic stability and activity against CYPs of potent analogues. | column: CYP % Activity at 10 μM / 3A4

[6] = molecular target: T2, CLK4 (Homo sapiens, UniProt Q9HAZ1); design: method as in HMS LINCS database; details: 10 μM, ref HMS LINCS database; cited from earlier work
T2 construct: purchased Reaction Biology Corp

[7] = system: CDKL2; design: method as in HMS LINCS database; details: 10 μM, ref HMS LINCS database; cited from earlier work
[8] = system: CDK4-cyclinD3; design: method as in HMS LINCS database; details: 10 μM, ref HMS LINCS database; cited from earlier work
[9] = system: PCTK1; design: method as in HMS LINCS database; details: 10 μM, ref HMS LINCS database; cited from earlier work
[10] = molecular target: T3, TAOK1 (Homo sapiens, UniProt Q7L7X3); design: method as in HMS LINCS database; details: 10 μM, ref HMS LINCS database; cited from earlier work
T3 construct: purchased Reaction Biology Corp

[11] = molecular target: T4, TAOK2 (Homo sapiens, UniProt Q9UL54); design: method as in HMS LINCS database; details: 10 μM, ref HMS LINCS database; cited from earlier work
T4 construct: purchased Reaction Biology Corp

[12] = molecular target: T5, ERK5 (Homo sapiens, UniProt Q13164); design: method as in HMS LINCS database; details: 10 μM, ref HMS LINCS database; cited from earlier work
T5 construct: purchased Reaction Biology Corp

[13] = system: ERK8; design: method as in HMS LINCS database; details: 10 μM, ref HMS LINCS database; cited from earlier work
[14] = molecular target: T6, PAK3 (Homo sapiens, UniProt O75914); design: method as in HMS LINCS database; details: 10 μM, ref HMS LINCS database; cited from earlier work
T6 construct: purchased Reaction Biology Corp

[15] = system: PFTAIRE2; design: method as in HMS LINCS database; details: 10 μM, ref HMS LINCS database; cited from earlier work
[16] = system: CDC2L5; design: method as in HMS LINCS database; details: 10 μM, ref HMS LINCS database; cited from earlier work
[17] = molecular target: T7, DYRK1B (Homo sapiens, UniProt Q9Y463); design: method as in HMS LINCS database; details: 10 μM, ref HMS LINCS database; cited from earlier work
T7 construct: purchased Reaction Biology Corp

[18] = system: PFPK5(P.falciparum); design: method as in HMS LINCS database; details: 10 μM, ref HMS LINCS database; cited from earlier work
[19] = molecular target: T8, GSK3a (Homo sapiens, UniProt P49840); design: method as in HMS LINCS database; details: 10 μM, ref HMS LINCS database; cited from earlier work
T8 construct: purchased Reaction Biology Corp
T8 sequence (P49840 whole entry): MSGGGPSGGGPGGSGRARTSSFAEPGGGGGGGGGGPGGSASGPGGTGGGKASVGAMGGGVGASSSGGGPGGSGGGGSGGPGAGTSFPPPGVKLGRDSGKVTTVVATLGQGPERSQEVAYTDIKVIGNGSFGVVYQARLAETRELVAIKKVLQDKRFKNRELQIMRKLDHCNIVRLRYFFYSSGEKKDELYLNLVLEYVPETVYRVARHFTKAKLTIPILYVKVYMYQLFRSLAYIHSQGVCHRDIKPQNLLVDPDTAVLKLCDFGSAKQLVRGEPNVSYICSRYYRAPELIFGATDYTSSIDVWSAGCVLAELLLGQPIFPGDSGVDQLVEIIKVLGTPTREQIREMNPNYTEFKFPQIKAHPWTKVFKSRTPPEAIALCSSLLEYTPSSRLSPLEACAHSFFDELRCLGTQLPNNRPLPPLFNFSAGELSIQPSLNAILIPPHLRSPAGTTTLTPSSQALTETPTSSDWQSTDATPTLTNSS

CYP3A4, sequence (P08684 whole entry): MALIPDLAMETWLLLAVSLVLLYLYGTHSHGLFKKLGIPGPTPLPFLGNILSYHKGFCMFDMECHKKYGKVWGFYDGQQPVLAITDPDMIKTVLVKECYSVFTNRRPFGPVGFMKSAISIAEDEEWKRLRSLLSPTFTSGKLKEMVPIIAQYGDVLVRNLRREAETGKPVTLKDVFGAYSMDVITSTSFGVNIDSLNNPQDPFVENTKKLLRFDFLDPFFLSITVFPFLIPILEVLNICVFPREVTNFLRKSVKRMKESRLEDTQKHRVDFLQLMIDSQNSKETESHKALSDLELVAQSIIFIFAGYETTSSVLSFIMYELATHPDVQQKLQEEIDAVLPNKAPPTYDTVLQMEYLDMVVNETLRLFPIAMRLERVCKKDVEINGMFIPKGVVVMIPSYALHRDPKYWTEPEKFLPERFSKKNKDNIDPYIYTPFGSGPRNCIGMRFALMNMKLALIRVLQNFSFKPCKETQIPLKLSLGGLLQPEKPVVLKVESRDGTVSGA
T7 sequence (Q9Y463 whole entry): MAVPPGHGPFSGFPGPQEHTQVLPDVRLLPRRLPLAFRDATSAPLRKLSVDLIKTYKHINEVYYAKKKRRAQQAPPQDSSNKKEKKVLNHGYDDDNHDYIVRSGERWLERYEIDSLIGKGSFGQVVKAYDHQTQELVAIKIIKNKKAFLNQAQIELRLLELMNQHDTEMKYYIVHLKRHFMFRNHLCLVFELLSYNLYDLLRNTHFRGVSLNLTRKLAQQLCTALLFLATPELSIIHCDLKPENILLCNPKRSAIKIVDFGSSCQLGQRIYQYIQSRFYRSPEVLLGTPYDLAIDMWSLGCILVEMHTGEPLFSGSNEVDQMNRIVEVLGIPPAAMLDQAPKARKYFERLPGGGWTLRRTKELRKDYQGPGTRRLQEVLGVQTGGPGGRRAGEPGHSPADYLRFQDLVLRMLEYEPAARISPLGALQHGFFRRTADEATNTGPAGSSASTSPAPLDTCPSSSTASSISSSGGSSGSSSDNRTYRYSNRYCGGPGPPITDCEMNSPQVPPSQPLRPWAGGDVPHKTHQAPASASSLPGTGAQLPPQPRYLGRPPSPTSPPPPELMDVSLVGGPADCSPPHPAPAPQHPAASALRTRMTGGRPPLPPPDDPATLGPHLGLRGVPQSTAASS
T5 sequence (Q13164 whole entry): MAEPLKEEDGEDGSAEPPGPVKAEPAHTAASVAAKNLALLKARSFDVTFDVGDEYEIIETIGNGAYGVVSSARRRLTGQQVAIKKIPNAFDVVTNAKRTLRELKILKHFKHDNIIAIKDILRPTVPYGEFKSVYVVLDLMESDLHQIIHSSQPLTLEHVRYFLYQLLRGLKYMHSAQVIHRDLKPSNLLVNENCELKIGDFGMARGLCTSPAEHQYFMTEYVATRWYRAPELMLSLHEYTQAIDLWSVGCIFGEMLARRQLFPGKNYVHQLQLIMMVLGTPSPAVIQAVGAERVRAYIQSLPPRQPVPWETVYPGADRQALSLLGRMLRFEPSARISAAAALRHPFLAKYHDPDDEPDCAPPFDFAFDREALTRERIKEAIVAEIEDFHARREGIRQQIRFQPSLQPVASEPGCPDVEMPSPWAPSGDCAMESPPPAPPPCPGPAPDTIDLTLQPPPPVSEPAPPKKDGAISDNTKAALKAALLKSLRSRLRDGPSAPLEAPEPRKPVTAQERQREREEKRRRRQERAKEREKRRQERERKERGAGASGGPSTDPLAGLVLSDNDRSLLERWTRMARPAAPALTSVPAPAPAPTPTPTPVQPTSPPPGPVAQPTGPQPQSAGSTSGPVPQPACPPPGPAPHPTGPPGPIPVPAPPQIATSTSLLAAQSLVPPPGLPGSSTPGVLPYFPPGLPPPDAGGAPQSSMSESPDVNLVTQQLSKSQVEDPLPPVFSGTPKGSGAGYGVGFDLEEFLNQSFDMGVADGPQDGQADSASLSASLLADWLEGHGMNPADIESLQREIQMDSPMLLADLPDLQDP
T2 sequence (Q9HAZ1 whole entry): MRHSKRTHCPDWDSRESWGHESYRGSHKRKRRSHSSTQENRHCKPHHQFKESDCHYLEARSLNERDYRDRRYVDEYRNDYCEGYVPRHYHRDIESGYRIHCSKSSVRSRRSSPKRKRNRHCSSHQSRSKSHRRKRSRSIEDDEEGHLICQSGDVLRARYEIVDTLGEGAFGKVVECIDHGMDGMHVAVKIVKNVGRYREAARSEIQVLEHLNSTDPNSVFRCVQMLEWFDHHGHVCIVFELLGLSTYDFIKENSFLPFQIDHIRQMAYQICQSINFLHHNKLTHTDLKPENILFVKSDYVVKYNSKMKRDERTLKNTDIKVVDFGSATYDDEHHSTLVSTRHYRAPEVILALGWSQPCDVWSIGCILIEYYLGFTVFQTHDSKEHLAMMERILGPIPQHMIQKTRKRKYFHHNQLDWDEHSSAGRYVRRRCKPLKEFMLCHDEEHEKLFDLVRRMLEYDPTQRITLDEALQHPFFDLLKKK
T4 sequence (Q9UL54 whole entry): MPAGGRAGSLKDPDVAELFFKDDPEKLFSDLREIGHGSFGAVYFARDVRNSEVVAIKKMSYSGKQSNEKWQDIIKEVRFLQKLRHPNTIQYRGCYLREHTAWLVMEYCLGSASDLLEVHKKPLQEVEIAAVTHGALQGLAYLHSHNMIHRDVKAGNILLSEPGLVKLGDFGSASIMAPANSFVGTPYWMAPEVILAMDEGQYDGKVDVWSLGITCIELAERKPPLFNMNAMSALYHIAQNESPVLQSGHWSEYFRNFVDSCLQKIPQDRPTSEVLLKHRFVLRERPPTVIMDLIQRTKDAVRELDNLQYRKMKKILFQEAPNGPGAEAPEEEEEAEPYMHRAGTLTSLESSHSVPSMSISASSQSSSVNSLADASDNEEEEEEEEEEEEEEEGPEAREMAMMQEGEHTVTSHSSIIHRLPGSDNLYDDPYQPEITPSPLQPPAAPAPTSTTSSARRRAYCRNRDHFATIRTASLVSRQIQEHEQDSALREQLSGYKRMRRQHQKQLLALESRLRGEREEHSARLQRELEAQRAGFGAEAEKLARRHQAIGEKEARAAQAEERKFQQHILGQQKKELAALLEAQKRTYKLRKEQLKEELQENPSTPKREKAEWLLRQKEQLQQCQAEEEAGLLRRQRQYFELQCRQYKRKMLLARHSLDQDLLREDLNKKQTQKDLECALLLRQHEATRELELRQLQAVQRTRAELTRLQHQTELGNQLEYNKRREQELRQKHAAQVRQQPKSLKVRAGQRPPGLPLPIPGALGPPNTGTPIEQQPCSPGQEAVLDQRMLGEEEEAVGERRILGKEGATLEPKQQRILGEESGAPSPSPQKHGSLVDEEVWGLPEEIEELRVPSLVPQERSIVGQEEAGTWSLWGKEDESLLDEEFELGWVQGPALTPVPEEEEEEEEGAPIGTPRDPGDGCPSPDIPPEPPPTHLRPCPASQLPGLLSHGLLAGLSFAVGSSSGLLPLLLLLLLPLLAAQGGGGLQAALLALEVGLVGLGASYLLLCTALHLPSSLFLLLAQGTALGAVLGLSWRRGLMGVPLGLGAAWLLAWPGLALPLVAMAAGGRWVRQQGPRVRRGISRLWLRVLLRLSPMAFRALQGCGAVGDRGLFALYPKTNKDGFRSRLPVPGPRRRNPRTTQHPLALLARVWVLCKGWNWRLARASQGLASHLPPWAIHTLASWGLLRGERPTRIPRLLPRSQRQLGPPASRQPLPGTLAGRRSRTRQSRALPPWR
T6 sequence (O75914 whole entry): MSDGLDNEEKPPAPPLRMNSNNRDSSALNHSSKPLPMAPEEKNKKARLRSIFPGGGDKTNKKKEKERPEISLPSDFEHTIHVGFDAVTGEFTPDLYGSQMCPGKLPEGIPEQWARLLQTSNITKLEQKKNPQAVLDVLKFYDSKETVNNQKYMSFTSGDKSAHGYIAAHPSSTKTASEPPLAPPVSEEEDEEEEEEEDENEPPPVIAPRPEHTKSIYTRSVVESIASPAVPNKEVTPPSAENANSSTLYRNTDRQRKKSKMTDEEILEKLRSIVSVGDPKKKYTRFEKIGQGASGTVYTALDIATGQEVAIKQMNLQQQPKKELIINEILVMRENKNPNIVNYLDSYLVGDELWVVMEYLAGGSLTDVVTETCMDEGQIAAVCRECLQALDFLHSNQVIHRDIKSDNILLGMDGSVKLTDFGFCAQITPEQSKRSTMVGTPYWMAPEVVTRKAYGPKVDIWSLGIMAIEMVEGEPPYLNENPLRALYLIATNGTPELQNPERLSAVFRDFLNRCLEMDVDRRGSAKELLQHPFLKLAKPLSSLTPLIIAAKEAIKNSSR

| Compound | combination effect with trastuzumab in growth inhibition [1] | combination effect with trastuzumab in growth inhibition [2] | IRS1 expression level (Western blot) [3] | CYP % Activity at 10 μM 1A2 [4] [%] | CYP % Activity at 10 μM 3A4 [5] [%] | % control [6] [%] | % control [7] [%] | % control [8] [%] | % control [9] [%] | % control [10] [%] | % control [11] [%] | % control [12] [%] | % control [13] [%] | % control [14] [%] | % control [15] [%] | % control [16] [%] | % control [17] [%] | % control [18] [%] | % control [19] [%] |
| --- | --- | --- | --- | --- | --- | --- | --- | --- | --- | --- | --- | --- | --- | --- | --- | --- | --- | --- | --- |
| CCn1cnc2c(NCc3ccc(-c4ccccn4)nc3)nc(-c3ccc(N)nc3)nc21 [Compound 30d, N-([2,2′-Bipyridin]-5-ylmethyl)-2-(6-aminopyridin-3-yl)-9-ethyl-9H-purin-6-amine] | modest level of synergism | modest level of synergism | strong suppression of IRS1 and WNT1 | 74.7 | 43.0 | – | – | – | – | – | – | – | – | – | – | – | – | – | – |
| CCn1cnc2c(NCc3ccc(-c4ccccn4)nc3)nc(-c3cnc(N)nc3)nc21 [Compound 30e, N-([2,2′-Bipyridin]-5-ylmethyl)-2-(2-aminopyrimidin-5-yl)-9-ethyl-9H-purin-6-amine] | – | – | strong suppression of IRS1 and WNT1 | 87.6 | 92.8 | – | – | – | – | – | – | – | – | – | – | – | – | – | – |
| CCc1cnn2c(NCc3ccc[n+]([O-])c3)cc(N3CCCC[C@H]3CCO)nc12 [Dinaciclib] | – | – | – | – | – | 5.1 | 10 | 2.0 | 0.3 | 3.1 | 4.8 | 2.9 | 1.0 | 7.8 | 0.4 | 0.3 | 6.0 | 1.2 | 3.0 |
